Test results taken from PubChem BioAssay AID504322 (Emory University Molecular Libraries Screening Center, 2011).
Active and inactive are the calls of the source. No rule for the calls is given here.

Each compound was assayed on CHOP reporter cell assay, percent of control (assay: CHOP reporter inhibitor potency, dose response, cell-based (AID 504322);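 also: CHO cells carrying a CHOP reporter stimulated with tunicamycin to induce ER stress; potency is for inhibition of the stress-induced reporter signal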).
For `O=S(=O)(Nc1cccc2c1CCCC2)c1cccc(C(F)(F)F)c1`, the IC50 was 9.51 µM (inactive).
For `Oc1ccc(/C=N/Nc2nc(N3CCCCCC3)nc(N3CCCCCC3)n2)c(O)c1`, the IC50 was 9.82 µM (inactive).
With `COc1ccccc1-c1cc(C(F)(F)F)nc(S(=O)(=O)CCCC(=O)Nc2cccnc2Cl)n1` the IC50 was > 10 µM (inactive).
With `Cc1ccc(NC(=O)C(=O)NCC2OCCc3ccccc32)cc1` (centres undefined) the IC50 was 8.99 µM (inactive).
For `Cc1ccn2cc(-c3cc4ccccc4oc3=O)nc2c1`, the IC50 was 9.15 µM (inactive).
With `CCOC(=O)/C(=C\c1ccc(OC(F)F)cc1)C1=Nn2c(nnc2-c2ccc(Cl)cc2)SC1` the IC50 was 3.2 µM (inactive).
For `CCOc1cc(C(=O)CSc2nnc(CNc3ccc(Cl)cc3)o2)ccc1NC(=O)CC`, the IC50 was 9.47 µM (inactive).
With `CCN1/C(=C\C=C\C2=[N+](CC)c3ccccc3C2(C)C)C(C)(C)c2ccccc21` the IC50 was 0.32 µM (inactive).
In the case of `Cc1csc(NC(=O)CSc2nnc3c4ccccc4nc(C(C)(C)C)n23)n1`, the IC50 is reported as 9.55 µM (inactive).
With `CC(=O)OC[C@]12CCC(C)=C[C@H]1O[C@@H]1[C@H](O)[C@@H](OC(C)=O)[C@@]2(C)[C@]12CO2` the IC50 was < 0.16 µM (inactive).
`COc1ccc(-c2nc(NC(=O)Cn3ccc(C(F)(F)F)n3)sc2C)cc1` was tested, and the IC50 was > 10 µM (inactive).
With `O=C(Oc1ccc(O)cc1)C12CC3CC(CC(C3)C1)C2` the IC50 was > 10 µM (inactive).
With `O=Nc1ccc(O)c2ncccc12` the IC50 was 8.83 µM (inactive).
`O=c1[nH]c2ccccc2n1C1CCN(CCCC(c2ccc(F)cc2)c2ccc(F)cc2)CC1` was tested, and the IC50 was 6.34 µM (inactive).
In the case of `FC(F)(F)c1cccc(Sc2nc(-c3ccccc3)nnc2C(F)(F)F)c1`, the IC50 is reported as 9.58 µM (inactive).
In the case of `O=C1c2ccc3c4c(ccc(c24)C(=O)N1c1cccc(O)c1)C(=O)N(c1cccc(O)c1)C3=O`, the IC50 is reported as 9.81 µM (inactive).
In the case of `Cc1ccc(-c2nc(-c3ccccn3)no2)cc1`, the IC50 is reported as 4.47 µM.
In the case of `Nc1c(C(=O)Nc2nc3ccccc3s2)sc2nc(-c3cccs3)ccc12`, the IC50 is reported as 7.44 µM (inactive).
`COc1cc(-c2nc3ccc4ccccc4c3c3c2CCC3)cc(OC)c1O` was tested, and the IC50 was > 10 µM (inactive).
For `COc1ccc(-c2cnc(OC(C)(C)C)nc2OC(C)(C)C)cc1OC`, the IC50 was 4.6 µM (inactive).
With `Cc1ccc(Cl)cc1NC1=C/C(=N\S(=O)(=O)c2cccs2)c2ccccc2C1=O` the IC50 was 3.94 µM.
For `O=c1c2ccccc2nc2n1CCN2Cc1ccc(Cl)cc1`, the IC50 was 9.8 µM (inactive).
`C=C1C(=O)O[C@@H]2C[C@@H](C)[C@@H]3C=CC(=O)[C@@]3(C)[C@@H](OC(C)=O)[C@H]12` was tested, and the IC50 was 2.48 µM.
For `CCCC(=O)OCCNc1cc(Sc2nc3ccccc3[nH]2)c2nonc2c1[N+](=O)[O-]`, the IC50 was 5.35 µM (inactive).
`S=C(Nc1ccccc1)Nc1ccc(OCc2ccc(Cl)cc2Cl)cc1` was tested, and the IC50 was 0.33 µM.
For `C=C1C(=O)O[C@@H]2C[C@@H](C)[C@@H]3C=CC(=O)[C@@]3(C)[C@@H](O)[C@H]12`, the IC50 was 2.61 µM.
In the case of `CC(C)Cn1c2c(c(=O)[nH]c1=O)C(C(F)(F)F)(C(F)(F)F)N=C(CCC1CCCCC1)N2`, the IC50 is reported as 2.37 µM.
With `COc1cccc(NC(=O)CSc2nnc(-c3cc(C)n(-c4ccccc4)c3C)o2)c1` the IC50 was 1.76 µM (inactive).
`CCCCCCOC(=O)Nc1ccc(S(=O)(=O)Nc2cccc([N+](=O)[O-])c2)cc1` was tested, and the IC50 was > 10 µM (inactive).
In the case of `CCCCc1nc(NCCN)c(C#N)c2c1CSC(C)(C)C2`, the IC50 is reported as 5.15 µM (inactive).
With `Cc1ccc(/C=N/n2c(C3CCCCC3)n[nH]c2=S)s1` the IC50 was 5.3 µM (inactive).
For `COc1ccccc1-n1cc([C@@H]2C[C@H]3CN(c4ccccc4)C(=O)[C@]34CCCN24)cn1`, the IC50 was 1.89 µM.
`CC(C)Cn1c(N)c(C(=O)COC(=O)CC23CC4CC(CC(C4)C2)C3)c(=O)n(C)c1=O` gave an IC50 of 0.82 µM.
With `CCSCCc1nnc(NC(=O)Nc2cccc(C(F)(F)F)c2)s1` the IC50 was 6.82 µM (inactive).
For `Cc1cc2c3c(c1)C(C)(c1ccccc1)CC(C)(C)N3C(=O)C21C(C#N)=C(N)OC2=C1C(=O)CC(C)(C)C2` (centres undefined), the IC50 was > 10 µM (inactive).
Work on `CCSc1nc2ccccc2n1C(=O)/C=C\c1ccc(OC)c(OC)c1` yielded an IC50 of 4.06 µM.
`O=C(CSc1ncnc2[nH]ncc12)Nc1nc(-c2ccc(F)c(F)c2)cs1` was tested, and the IC50 was 6.98 µM (inactive).
With `COC(=O)c1cc(NC(=S)Nc2cc(Cl)cc(Cl)c2)cc(C(=O)OC)c1` the IC50 was > 10 µM (inactive).
In the case of `O=C(/C=C/c1cccc(C(F)(F)F)c1)Nc1cccc(C(F)(F)F)c1`, the IC50 is reported as 2.49 µM (inactive).
For `COc1cc(OC)c(OC)cc1/C=N/Nc1ncnc2c1[nH]c1ccccc12`, the IC50 was 9.19 µM (inactive).
In the case of `O=[N+]([O-])c1ccc(/C=N/N=C/c2ccc([N+](=O)[O-])o2)o1`, the IC50 is reported as 1.78 µM.
In the case of `C=CCOC(=O)C1=C(C)NC(SCC(=O)Nc2nccs2)=C(C#N)C1c1ccc(Cl)cc1` (centres undefined), the IC50 is reported as 9.67 µM (inactive).
In the case of `Cc1cc(Nc2cccc([N+](=O)[O-])c2)n2c(nc3ccccc32)c1C#N`, the IC50 is reported as 4.08 µM (inactive).
With `O=C(Nc1ccccc1NC(=O)NC1CCCCC1)NC1CCCCC1` the IC50 was 8.46 µM (inactive).
With `Cc1cccc(N2CCN(C(=O)CS(=O)(=O)Cc3nc(-c4ccccc4F)oc3C)CC2C)c1` (centres undefined) the IC50 was > 10 µM (inactive).
With `COCCCn1c(N)c(C(=O)NCCC(C)C)c2nc3ccccc3nc21` the IC50 was 9.46 µM (inactive).
`O=C(CSC1c2ccccc2-c2ccccc21)N/N=C/c1ccccc1O` was tested, and the IC50 was > 10 µM (inactive).
In the case of `CC1=CC2/C=C(\C)CCC(O)C(O)/C=C/C(=O)C23C(=O)NC(CC(C)C)C3C1C` (centres undefined), the IC50 is reported as 9.69 µM (inactive).
With `Nc1c(C(=O)Nc2ccc(S(=O)(=O)N3CCCC3)cc2)sc2nc3ccc(OC(F)(F)F)cc3cc12` the IC50 was 6.79 µM (inactive).
`CCOC(=O)CCS(=O)(=O)c1nc(-c2ccccc2)cc(C(F)(F)F)n1` showed an IC50 of less than 0.16 µM.
For `CC(C)(C)c1ccc(C(=O)NC(=S)NNC(=O)c2cccs2)cc1`, the IC50 was 6.3 µM (inactive).
`CCn1c(C)nc2cc(-c3nnc(-c4c(-c5ccccc5)noc4C)o3)ccc21` was tested, and the IC50 was 8.88 µM (inactive).
`C=CCn1c(SCC(=O)c2[nH]c(C)c(C(=O)OC)c2C)nc2scc(-c3ccc(OC)c(OC)c3)c2c1=O` was tested, and the IC50 was 6.22 µM (inactive).
With `O=C(NCc1ccccc1Cl)c1ccc(S(=O)(=O)Nc2cccc(C(F)(F)F)c2)cc1` the IC50 was > 10 µM (inactive).
`FC(F)(F)c1cccc(NC(=S)N2CCN(c3cccc(C(F)(F)F)c3)CC2)c1` was tested, and the IC50 was 9.67 µM (inactive).
With `COC(=O)c1ccc2c(c1)C(C)(C)C(/C=C/c1ccc(O)cc1)=[N+]2C` the IC50 was > 10 µM (inactive).
With `CN1C(=O)/C(=C/c2cc(N=Nc3ccccc3)ccc2O)SC1=S` the IC50 was 4.49 µM (inactive).
`COc1ccc(Cn2c(SCc3ccccc3C)nc3cc(OC)c(OC)cc3c2=N)cc1` was tested, and the IC50 was 8.86 µM (inactive).
In the case of `CCOc1cc(S(=O)(=O)Nc2cc(C)cc(C)c2)ccc1Cl`, the IC50 is reported as 9.51 µM (inactive).
`CCCOc1ccc(N2C(=O)CC(SC(=NCC)Nc3cccc(F)c3)C2=O)cc1` (centres undefined) was tested, and the IC50 was 8.9 µM (inactive).
`CCCOc1ccccc1C1CC(=O)NC(C)=C1C(=O)OCC(C)C` (centres undefined) was tested, and the IC50 was 5.14 µM (inactive).
`CCOC(=O)c1c(C)[nH]c2c1-c1ccccc1C(=O)C2=O` showed an IC50 of 2.38 µM.
In the case of `C=CCc1cccc(/C=N/NC(=O)CCCNc2ccc(C)cc2)c1O`, the IC50 is reported as 9.23 µM (inactive).
In the case of `O=C1/C(=C/c2ccncc2)SC(=S)N1C1CCS(=O)(=O)C1` (centres undefined), the IC50 is reported as 9.91 µM (inactive).
In the case of `Cc1cccc(NC(=S)NC(NC(=O)OCc2ccccc2)C(Cl)(Cl)Cl)c1` (centres undefined), the IC50 is reported as 9.44 µM (inactive).
In the case of `O=C(COc1ccc(Cl)cc1Cl)NCCC1=CCCCC1`, the IC50 is reported as 7.77 µM (inactive).
For `Cc1ccc(-n2ncc(Br)c(Br)c2=O)cc1`, the IC50 was 4.78 µM.
`CC(C)C[C@H](NC(=O)OC(C)(C)C)c1nnc(SCC(=O)Nc2ccc(Br)cc2)o1` was tested, and the IC50 was 5.57 µM (inactive).
In the case of `C=CCOC(=O)C1=C(C)NC(C)=C(C(=O)OCC=C)C1/C=C/c1ccccc1`, the IC50 is reported as 5.02 µM (inactive).
In the case of `Oc1ccc(N=Nc2cccc(C(F)(F)F)c2)cc1C=Nc1ccc(N2CCOCC2)cc1`, the IC50 is reported as 6.97 µM (inactive).
For `COc1ccc(C(=O)c2c(C(F)(F)F)oc3c2C(=O)c2ccccc2C3=O)cc1`, the IC50 was 9.46 µM (inactive).
In the case of `CCc1ccc(-c2cc(C(=O)N3N=C(C(F)F)CC3(O)C(F)F)c3ccccc3n2)cc1` (centres undefined), the IC50 is reported as 5.26 µM (inactive).
With `CCC1CCc2c(sc(NC(=O)c3ccoc3C)c2C(N)=O)C1` (centres undefined) the IC50 was > 10 µM (inactive).
With `CCOC(=O)c1cc([N+](=O)[O-])c([N+](=O)[O-])cc1NC(C)=O` the IC50 was 4.24 µM.
With `CNC(=O)NC(=O)C(C)OC(=O)c1oc2ccccc2c1CSc1ccc(Cl)cc1` (centres undefined) the IC50 was > 10 µM (inactive).
`O=S(=O)(C/C(=C/CO)S(=O)(=O)c1ccccc1)c1ccccc1` was tested, and the IC50 was > 10 µM (inactive).
Compound `CS(=O)(=O)c1nc(-c2cccs2)cc(C(F)(F)F)n1` has an IC50 of less than 0.16 µM.
For `N#CC1=C(N)N2C(=C(C#N)C1c1ccc(Br)cc1)Nc1ccccc12` (centres undefined), the IC50 was > 10 µM (inactive).
With `CCc1ccc(-c2nc(CN3CCC(C(=O)NCCN(CC)c4ccccc4)CC3)c(C)o2)cc1` the IC50 was 3.46 µM (inactive).
`CNc1nc(Sc2cccc(C(F)(F)F)c2)cc(C(F)(F)F)n1` was tested, and the IC50 was > 10 µM (inactive).
With `C/C=C/Cn1c(SCCCc2ccccc2)nc2c1c(=O)[nH]c(=O)n2C` the IC50 was > 10 µM (inactive).
For `CCC1(c2ccc(F)cc2)NC(=O)N(CC(=O)Nc2ccc(-c3nc4ccc(C)cc4s3)cc2)C1=O` (centres undefined), the IC50 was 1.54 µM.
With `C#CC(=O)N(c1ccc(OC)c(OC)c1)C(C(=O)NC1CCCC1)c1cccs1` (centres undefined) the IC50 was 5.28 µM (inactive).
In the case of `CCCCc1c(C)nn(-c2nnc3c4ccccc4n(CC)c3n2)c1C`, the IC50 is reported as 9.73 µM (inactive).
`CCOC(=O)c1c(NC(=O)Cc2cccs2)sc(C(=O)NC2CCCCC2)c1C` showed an IC50 of 2.99 µM.
In the case of `O=C(Nc1ccccc1Cl)c1ccccc1Oc1ccc(C(F)(F)F)cc1[N+](=O)[O-]`, the IC50 is reported as 6.53 µM (inactive).
`Cc1ccc2nc(-c3cc(-c4ccccc4)no3)cn2c1` was tested, and the IC50 was 9.74 µM (inactive).
Compound `Cc1ccc(NC(=O)O/N=C/c2c(C)nn(C(C)(C)C)c2C)cc1Cl` has an IC50 of less than 0.16 µM.
In the case of `Cc1cccc(NS(=O)(=O)c2ccc(C3CCCCC3)cc2)c1`, the IC50 is reported as 6.93 µM (inactive).
For `COc1ccc(CC(=O)Nc2cccc(-c3nnc(-c4cccc(C)c4)o3)c2)cc1OC`, the IC50 was 5.17 µM (inactive).
In the case of `CCCCCCn1c(=O)c(C(=O)N/N=C/c2cccc(F)c2)c(O)c2ccccc21`, the IC50 is reported as 7.03 µM (inactive).
With `COc1ccc(NC(=O)c2cc(-c3cc(C)cc(C)c3O)n[nH]2)cc1Cl` the IC50 was 8.79 µM (inactive).
With `CCCOC(=O)c1ccc(Oc2cn[nH]c2-c2ccc(OCC)cc2O)cc1` the IC50 was 9.56 µM (inactive).
`CCCCCCOC(=O)c1ccccc1N` was tested, and the IC50 was 6.31 µM (inactive).
